Results from EP1708721B1, “MYOCARDIAL PERFUSION IMAGING USING ADENOSINE RECEPTOR AGONISTS” (Gilead Sciences, Inc., priority 2004, dated 2005).
Where two headings read alike, the source gives them in different places.

What was measured:
[1] = tested on: awake dogs; experiment: increase of coronary blood flow velocity (CBFv) in awake dogs, potency versus adenosine (background statement); type: in vivo; conditions: relative to adenosine
[2] = half-life of CVT-3146 (background statement); conditions: in vivo; species not stated; read-out: initial half-life
Description: The purpose of this open label study was to determine the magnitude and duration of effect of CVT-3146 (10-500 µg) on CBFv in humans.

[3] = tested on: human subjects; experiment: Example 2: dose range study, coronary flow velocity, heart rate and blood pressure after IV bolus; type: in vivo
Description: The study included patients undergoing a clinically indicated coronary catheterization with no more than a 70% stenosis in any coronary artery and no more than a 50% stenosis of the study vessel had CBFv determined by Doppler flow wire. Study subject were selected after measuring baseline and peak CBFv after an intracoronary (IC) injection of 18 µg of Ado. 36 subjects were identified as meeting the study criteria of having a peak to baseline CBFv ration of ≥ 2.5 in response to Adenosine,
CVT-3146 was administered to the study subjects by IV bolus in less that 10 seconds in amounts ranging from 10 µg to 500 µg.
The effectiveness of both compounds was measured by monitoring coronary flow velocity. Other coronary parameters that were monitored included heart rate and blood pressure. These parameters were measured in order to evaluate the time to peak dose response, the magnitude of the dose response and the duration of the dose response. Adverse events were also monitored. Coronary blood flow velocity was measured at the left anterior descending coronary artery (LAD) or left circumflex coronary artery (LCx). The velocity measurements were taken by following standard heart catheterization techniques and inserting a 0.014 inch Doppler-tipped Flowire into the LAD or LCx vessel and thereafter monitoring blood flow velocity. In addition, hemodynamic and electrocardiographic measurements were recorded continuously.
Overall, 36 human subjects (n=36) were evaluated. Of the 36, 18 were female and 18 were male. Their mean age was 53.4 and they ranged from 24-72 years in age. Of the 36 subjects evaluated, the LAD vessel of 31 subjects was monitored, and the LCx vessel of 5 subjects was monitored. The following doses (µg) of CVT-3146 were given to the subjects in a single iv bolus: 10 (n=4); 30 (n=6); 100 (n=4); 300 (n=7); 400 (n=9); 500 (n=6).

[4] = Example 3: pharmacokinetic profile after a single IV bolus, three-compartment open model; type: in vivo, human; conditions: for Vc / Vd / half-life / clearance: Mean (SD); for Vd / half-life / clearance: intravenous; for Vd: read-out: Vss
Description: This Example is a study performed to evaluate (1) the maximum tolerated dose of CVT-3146 and (2) the pharmacokinetic profile of CVT-3146 in healthy volunteers, after a single IV bolus dose.
CVT-3146 was administered as an IV bolus (20 seconds) in ascending doses of […], 10, 20 and 30 µg/kg.
Patient safety was monitored by ECG, laboratory assessments, and collection of vital signs and adverse events. Pharmacokinetics: • Plasma samples were drawn during supine phase (Days 1 and 2) at 0, 1, 2, 3, 4, 5, 7,10, 15, 20, 30, 45 minutes after dosing and at 1, 1.5., 2, 4, 6, 8,12 and 24 hours after dosing. Urine was collected for 24 hours for […] excretion. Pharmacodynamics: • The study evaluated the relationship of changes in heart rate to dose in both standing and supine positions and plasma concentration in the supine position.
A three-compartment open model was fit to the data using observed Tmax (1-4 minutes) as the duration of a zero-order infusion. Reliable parameter estimates were obtained for dose of 1-30 µg/kg. Parameters are summarized in the following (Table 2): Table 2

[5] = tested on: subjects (27 men, 9 women); experiment: Example 7: pharmacologic stress myocardial perfusion imaging protocol, adverse effects and hemodynamics; type: in vivo, human
From the text: 36 subjects (27 men, 9 women; 67±10 years) were studied with two doses of CVT-3146 [400 mcg (n=18), 500 mcg (n=18)], administered as an IV bolus, as part of a pharmacologic stress myocardial perfusion imaging protocol.

[6] = peak hemodynamic changes, mean±S.D., 400 and 500 mcg

CNC(=O)c1cnn(-c2nc(N)c3ncn([C@@H]4O[C@H](CO)[C@@H](O)[C@H]4O)c3n2)c1 [CVT-3146, (1-{9-[(4S,2R,3R,5R)-3,4-dihydroxy-5-(hydroxymethyl)oxolan-2-yl]-6-aminopurin-2-yl}pyrazol-4-yl)-N-methylcarboxamide]
more potent than adenosine (Ado) in increasing coronary blood flow velocity (CBFv) [1]: > 100 fold
half-life [2]: 3 min
Maximum decrease in diastolic BP ([3]; 400 µg IV bolus): 10 ± 5 mmHg
Maximum decrease in systolic BP ([3]; 400 µg IV bolus): 20 ± 8 mmHg
Maximum increase in heart rate ([3]; 400 µg IV bolus): 18 ± 8 bpm
time coronary blood flow velocity ≥ 2.5-fold above baseline was maintained ([3]; 400 µg IV bolus): 2.8 min
time of maximum decrease in diastolic BP after dosing ([3]; 400 µg IV bolus): about 1 minute
time of maximum increase in heart rate after dosing ([3]; 400 µg IV bolus): about 1 minute
amount at which plateau peak velocity is reached ([3]; IV bolus): less than 100 µg
amount that increases peak flow velocity (as low as) ([3]; IV bolus): 10 µg
time at which peak flow was reached ([3]; all doses (10 to 500 µg IV bolus)): about 30 seconds
peak effects ([3]; doses above about 100 µg): equivalent to 18 µg adenosine administered IC
Vc ([4]; Dose 1 µg/kg, N=3): 9.84 (4.12) L
Vc ([4]; Dose 3 µg/kg, N=4): 13.7 (6.06) L
Vc ([4]; Dose 10 µg/kg, N=4): 17.9 (6.11) L
Vc ([4]; Dose 20 µg/kg, N=8): 12.5 (5.83) L
Vc ([4]; Dose 30 µg/kg, N=3): 15.7 (4.59) L
Vc ([4]; Total (doses 1-30 µg/kg), N=22): 13.8 (5.67) L
Vd ([4]; human, plasma, 1 ug/kg, N=3): 69 L
half-life ([4]; human, plasma, 1 ug/kg, N=3, read-out: a Half-life): 2.14 min
half-life ([4]; human, plasma, 1 ug/kg, N=3, read-out: β Half-life): 8.93 min
half-life ([4]; human, plasma, 1 ug/kg, N=3, read-out: λ Half-life): 99 min
Vd ([4]; human, plasma, 3 ug/kg, N=4): 90 L
half-life ([4]; human, plasma, 3 ug/kg, N=4, read-out: a Half-life): 3.11 min
half-life ([4]; human, plasma, 3 ug/kg, N=4, read-out: β Half-life): 17.2 min
half-life ([4]; human, plasma, 3 ug/kg, N=4, read-out: λ Half-life): 130 min
Vd ([4]; human, plasma, 10 ug/kg, N=4): 101 L
half-life ([4]; human, plasma, 10 ug/kg, N=4, read-out: a Half-life): 4.15 min
half-life ([4]; human, plasma, 10 ug/kg, N=4, read-out: β Half-life): 50.2 min
half-life ([4]; human, plasma, 10 ug/kg, N=4, read-out: λ Half-life): 132 min
Vd ([4]; human, plasma, 20 ug/kg, N=8): 75.2 L
half-life ([4]; human, plasma, 20 ug/kg, N=8, read-out: a Half-life): 4.69 min
half-life ([4]; human, plasma, 20 ug/kg, N=8, read-out: β Half-life): 32.6 min
half-life ([4]; human, plasma, 20 ug/kg, N=8, read-out: λ Half-life): 117 min
Vd ([4]; human, plasma, 30 ug/kg, N=3): 89.6 L
half-life ([4]; human, plasma, 30 ug/kg, N=3, read-out: a Half-life): 3 min
half-life ([4]; human, plasma, 30 ug/kg, N=3, read-out: β Half-life): 14 min
half-life ([4]; human, plasma, 30 ug/kg, N=3, read-out: λ Half-life): 99.4 min
Vd ([4]; human, plasma, Total (doses 1-30 µg/kg), N=22): 75.3 L
half-life ([4]; human, plasma, Total (doses 1-30 µg/kg), N=22, read-out: a Half-life): 3.73 min
half-life ([4]; human, plasma, Total (doses 1-30 µg/kg), N=22, read-out: β Half-life): 27.2 min
half-life ([4]; human, plasma, Total (doses 1-30 µg/kg), N=22, read-out: λ Half-life): 86.4 min
clearance ([4]; male, human, plasma, 1 ug/kg, N=3): 737 mL/min
clearance ([4]; male, human, plasma, 3 ug/kg, N=4): 668 mL/min
clearance ([4]; male, human, plasma, 10 ug/kg, N=4): 841 mL/min
clearance ([4]; male, human, plasma, 20 ug/kg, N=8): 743 mL/min
clearance ([4]; male, human, plasma, 30 ug/kg, N=3): 1020 mL/min
clearance ([4]; male, human, plasma, Total (doses 1-30 µg/kg), N=22): 768 mL/min
Tmax ([4]; male, human, plasma, IV bolus, supine, read-out: observed Tmax): 1 to 4 min
ST abnormalities developed ([5]; 36 subjects): 7 pts
T wave abnormalities developed ([5]; 36 subjects): 5 pts
Flushing ([5]; 400-mcg group): 17%
dizziness ([5]; 400-mcg group): 11%
dyspnea ([5]; 400-mcg group): 17%
mean change in HR response ([5]; 400 mcg dose): 34.8%
Flushing ([5]; 500-mcg group): 44%
dizziness ([5]; 500-mcg group): 28%
dyspnea ([5]; 500-mcg group): 44%
mean change in HR response ([5]; 500 mcg dose): 44.2%
BP changes deviated from baseline ([5]; Thirty min after CVT-3146): < 2%
HR remained above baseline by ([5]; Thirty min after CVT-3146): 8.6%
abdominal pain ([5]; both doses, 36 subjects): 11%
chest discomfort ([5]; both doses, 36 subjects): 33%
headache ([5]; both doses, 36 subjects): 25%
systolic BP did not fall below ([5]; either dose): ≥ 90 mmHg
serious AE occurred ([5]; exacerbation of a migraine headache, required hospitalization): One
2nd or 3rd degree AV block ([5]; in vivo): No 2nd or 3rd degree AV block was noted
serious arrhythmias ([5]; in vivo): no serious arrhythmias
time of peak hemodynamic effect, diastolic BP ([5]; in vivo): 8 min
time of peak hemodynamic effect, heart rate (HR) ([5]; in vivo): ≤ 0.033 h
time of peak hemodynamic effect, systolic blood pressure (BP) ([5]; in vivo): 4 min
Diastolic BP, Absolute Change [5, 6]: -5.4±7.2 mmHg
Diastolic BP, Relative Change [5, 6]: -7.9%±10.5%
Heart Rate, Absolute Change [5, 6]: +21.9±10.4 beats per min
Heart Rate, Relative Change [5, 6]: +36.7%+21.0%
Systolic BP, Absolute Change [5, 6]: -5.9±10.7 mmHg
Systolic BP, Relative Change [5, 6]: 4.1%±7.6%
AEs mild to moderate ([5]; share of AEs): 96%
AEs resolved within 15 min without treatment ([5]; share of AEs): 91%
